Columns and labels:
Mouse P-gp = Mouse P-gp (Mus musculus, UniProt P21447); test: P-gp transport assay (mouse); format: in vitro ADME; conditions: efflux ratio
Description: P-Gp Transport Assay (Human and Mouse) (P-Gp Assay)
In the assay of the P-gp efflux ratio ER as described hereinabove, a compound with ER<2.5 is regarded most suitable. In addition, compounds with low hERG channel binding are suitable as well.

BACE1 [1] = biological target: T1, BACE1 (Homo sapiens, UniProt P56817); test: BACE1 KD SPR assay; format: binding; conditions: Surface Plasmon Resonance
Experimental: Surface Plasmon Resonance measurements were performed on a Biacore T200 instrument. Immobilization of BACE-1 was performed by standard amine coupling chemistry on a CMS sensor to achieve protein surface density of ˜8000 pg/mm2 (RU). Immobilization was performed using the acetate buffer (25 mM Na acetate, 150 mM NaCl, 0.01% P20, 3 mM EDTA, pH 4.5) as the running buffer at 25° C. In the first step the carboxyl groups of CMS sensor surface were transformed to the reactive succinimide esters by contacting the sensor surface 7 minutes with a solution of 0.2 M N-ethyl-N-dimethylaminopolycarboodiimide (EDC) and 0.05 M N-hydroxysuccinimide (NHS). After the activation, the sensor surface was contacted with (˜5 μgml-1 BACE1 protein solution in 10 mM sodium acetate coupling buffer (pH 4.5) to reach desired protein surface density. Finally, the excess of activated carboxylic groups on the surface was quenched with ethanolamine (1 M, pH 8.5, 7 min).
Binding assays were performed at 18° C. under the same buffer conditions as immobilization of the protein. Compounds were dissolved in DMSO as 10 mM stocks and diluted in running buffer to perform titration series (5 concentrations with dilution factor of 2) on a protein and reference (activated and deactivated CMS sensor surface) surfaces in parallel.

BACE1 [2] = biological target: T1, BACE1; test: Cellular Aβ-lowering assay (Abeta 40 AlphaLISA, HEK293 APP cells); format: cell-based; set-up: endogenous in cells; host or cells: HEK293 APP cells; conditions: HEK293 APP cells, Aβ40 in supernatant; read-out: BACE1 cell act. Aβ40 IC50
Experimental: Cellular Aβ-Lowering Assay:
The Abeta 40 AlphaLISA Assay can be used. The HEK293 APP cells were seeded in 96 well Microtiter plates in cell culture medium (Iscove's, plus 10% (v/v) fetal bovine serum, penicillin/streptomycin) to about 80% confluency and the compounds were added at a 3× concentration in ⅓ volume of culture medium (final DMSO concentration was kept at 1% v/v). After 18-20 hrs incubation at 37° C. and 5% CO2 in a humidified incubator, the culture supernatants were harvested for the determination of AP 40 concentrations using Perkin-Elmer Human Amyloid beta 1-40 (high specificity) Kit (Cat#AL275C).
In a Perkin-Elmer White Optiplate-384 (Cat#6007290), 2 ul culture supernatants were combined with 2 μl of a 10× AlphaLISA Anti-hAP Acceptor beads+Biotinylated Antibody Anti-Aβ 1-40 Mix (50 μg/mL/5 nM). After 1 hour room temperature incubation, 16 μl of a 1.25× preparation of Streptavidin (SA) Donor beads (25 μg/mL) were added and incubated for 30 minutes in the Dark. Light Emission at 615 nm was then recorded using EnVision-Alpha Reader. Levels of AP 40 in the culture supernatants were calculated as percentage of maximum signal (cells treated with 1% DMSO without inhibitor). The IC50 value were calculated using the Excel XLfit software.
Cellular Aβ-Lowering Assay (Cell-Based Assay)
The determination of BACE1 activity can be either measured by using an enzymatic cell-free fluorescence assay (BACE1 cell free, table 2) or by a whole cell assay using HEK293 APP cells (Cellular Aβ-lowering, table 2). Both assays are suitable to determine BACE1 inhibition.

[3] = test system: Aβ40 in brain of wild-type mice; test: Mouse acute in vivo model (inhibition of Aβ40 in brain of wild-type mice); conditions: 4 h post dose
Experimental: Mouse Acute In Vivo Model (Inhibition of Aβ40 in Brain of Wild-Type Mice)
Single Dose Efficacy in Mice
The mouse single dose efficacy was measured in brain homogenate from C57Bl/6J wildtype mice after DEA extraction as described in H. Hilpert et al., J. Med. Chem. 2013, 56, 3980-3995 (dx.doi.org/10.1021/jm400225m).
(§1) Aβ 40 concentration was determined after solid phase extraction as described above and following a modified protocol from Perkin-Elmer with a commercially available antibody against the N-terminal part of rat Aβ (252Q6, Invitrogen cat. No. AMB0062) and an in-house C-terminal specific anti-Aβ40 antibody (BAP-24, Brockhaus M. et al., J. Neuroreport, 1998, 9:1481-1486) bound to acceptor beads (PerkinElmer, Cat. 6772002). 20 μl analyte per well (reconstituted extracts or standard) were loaded to a White Optiplate-96 (Perkin-Elmer, Cat#6005290). Then, a mixture of biotinylated BAP24 antibody (1:2000 diluted at approximately 1 nM final concentration) and antibody 252Q6 bound to AlphaLISA acceptor beads (Perkin-Elmer cat. No. 6772002 (1:100 diluted, 10 ug/mL final concentration) in 1× AlphaLISA buffer (Perkin-Elmer, AL000F) was added. After 1 hour room temperature incubation in the dark, 20 uL of a streptavidin coated donor beads dilution (40 μg/mL) were added and incubated for 30 minutes in the dark. Light emission at 615 nm was recorded using an EnVision AlphaScreen Reader (Perkin-Elmer). Levels of Aβ40 were calculated as percentage of the baseline samples from non-treated animals.
Aβ40 lowering was determined after oral administration in wild-type mice (C57Bl/6J mice, n=3-4) 4 h post dosing. Wild-type mice were used as they have a normal physiological level of APP expression and are thus expected to provide a better physiological model for Aβ-peptide production than APP-transgenic organisms. In vivo efficacy is a key factor for appropriate drug candidates, being more relevant than in vitro activities.

CSF Aβ40 = test: Rat single dose study, inhibition of CSF Aβ40 in Wistar rats; format: in vivo; conditions: rat CSF Aβ40, 1 mg/kg, 4 h post dose
Experimental: Rat Single Dose PK Study (Inhibition of CSF Aβ40 in Wistar Rats)
The rat single dose PK study was described in H. Hilpert et al., J. Med. Chem. 2013, 56, 3980-3995 (dx.doi.org/10.1021/jm400225m) with slight modifications.
as §1, with “determined without” for “determined after”, “extraction” for “extraction as described above and”, “20 μL” for “20 uL”, “of Aβ 40” for “of Aβ40”

T1 sequence (P56817 46-501): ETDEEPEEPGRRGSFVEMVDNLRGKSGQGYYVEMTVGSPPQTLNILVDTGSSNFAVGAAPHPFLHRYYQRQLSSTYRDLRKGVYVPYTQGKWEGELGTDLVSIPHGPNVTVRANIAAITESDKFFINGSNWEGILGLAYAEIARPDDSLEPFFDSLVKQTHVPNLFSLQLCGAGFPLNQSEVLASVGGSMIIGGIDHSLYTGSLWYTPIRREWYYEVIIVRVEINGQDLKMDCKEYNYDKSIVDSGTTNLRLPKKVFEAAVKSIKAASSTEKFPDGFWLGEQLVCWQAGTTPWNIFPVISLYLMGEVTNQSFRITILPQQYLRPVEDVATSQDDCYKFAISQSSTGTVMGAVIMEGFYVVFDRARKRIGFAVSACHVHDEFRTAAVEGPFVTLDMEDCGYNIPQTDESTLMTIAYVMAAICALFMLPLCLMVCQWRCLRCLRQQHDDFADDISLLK
Sequence of Mouse P-gp (P21447 whole entry): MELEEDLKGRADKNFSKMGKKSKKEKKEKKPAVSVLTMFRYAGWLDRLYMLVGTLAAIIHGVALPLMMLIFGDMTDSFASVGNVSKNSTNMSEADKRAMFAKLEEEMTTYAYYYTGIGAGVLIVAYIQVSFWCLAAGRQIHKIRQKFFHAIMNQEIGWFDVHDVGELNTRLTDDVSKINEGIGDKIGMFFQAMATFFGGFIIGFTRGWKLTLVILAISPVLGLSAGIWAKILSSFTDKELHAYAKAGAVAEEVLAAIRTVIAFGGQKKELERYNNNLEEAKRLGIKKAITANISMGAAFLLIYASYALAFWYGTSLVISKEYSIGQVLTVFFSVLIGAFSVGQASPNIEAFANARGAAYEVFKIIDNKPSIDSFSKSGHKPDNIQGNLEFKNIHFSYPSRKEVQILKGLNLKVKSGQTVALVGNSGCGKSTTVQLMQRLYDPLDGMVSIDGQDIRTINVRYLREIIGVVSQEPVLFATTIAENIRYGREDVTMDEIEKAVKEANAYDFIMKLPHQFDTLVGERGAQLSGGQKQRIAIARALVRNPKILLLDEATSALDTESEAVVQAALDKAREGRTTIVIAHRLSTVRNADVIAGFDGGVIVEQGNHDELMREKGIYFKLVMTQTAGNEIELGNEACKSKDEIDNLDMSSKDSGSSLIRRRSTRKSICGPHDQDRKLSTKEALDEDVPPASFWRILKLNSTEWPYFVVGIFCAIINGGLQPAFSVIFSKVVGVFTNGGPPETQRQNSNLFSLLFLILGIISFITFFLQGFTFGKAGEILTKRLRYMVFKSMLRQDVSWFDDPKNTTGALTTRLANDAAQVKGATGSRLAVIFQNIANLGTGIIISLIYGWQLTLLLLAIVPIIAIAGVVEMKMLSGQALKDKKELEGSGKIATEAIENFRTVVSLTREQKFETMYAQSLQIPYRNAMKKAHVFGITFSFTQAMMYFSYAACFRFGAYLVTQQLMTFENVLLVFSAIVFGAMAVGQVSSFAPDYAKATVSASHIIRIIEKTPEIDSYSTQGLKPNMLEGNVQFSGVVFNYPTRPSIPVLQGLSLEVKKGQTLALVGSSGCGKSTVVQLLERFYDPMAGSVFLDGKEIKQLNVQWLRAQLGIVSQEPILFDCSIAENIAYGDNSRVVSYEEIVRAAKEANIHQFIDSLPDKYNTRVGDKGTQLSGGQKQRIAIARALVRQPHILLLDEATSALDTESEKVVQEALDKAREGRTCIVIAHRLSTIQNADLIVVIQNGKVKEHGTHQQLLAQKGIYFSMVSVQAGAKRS

SMILES: Cc1cc(C#N)cnc1C(=O)Nc1ccc(F)c([C@@]2(C)N=C(N)O[C@H](C(F)(F)F)[C@@H]2F)n1 [Example 1, N-(6-((4R,5R,6S)-2-amino-5-fluoro-4-methyl-6-(trifluoromethyl)-5,6-dihydro-4H-1,3-oxazin-4-yl)-5-fluoropyridin-2-yl)-5-cyano-3-methylpicolinamide]
- Mouse P-gp ER (Mouse P-gp): 3.5
- Kd (BACE1 [1]; 18° C., pH 4.5): 2 nM
- residence time (BACE1 [1]; t1/2=0.693/koff): 16 min
- IC50 (BACE1 [2]): 15 nM
- Brain Aβ-lowering 3 mg/kg ([3]; single p.o. dose 3 mg/kg): 58%
- Brain Aβ-lowering 10 mg/kg ([3]; single p.o. dose 10 mg/kg): 92%
- CSF Aβ-lowering 1 mg/kg at 4 h (CSF Aβ40): 80%
- CSF Aβ-lowering 1 mg/kg at 4 h (CSF Aβ40; listed as example 1): 80%
